This note sets out measurements from ChEMBL document CHEMBL1201862, “PubChem BioAssay data set” (2004).

Calls of active or inactive are those of the source. Where only a bound is given, the exact number is not on record here.

Assay [1] has as its target Heat shock protein HSP 90-alpha (Homo sapiens, UniProt P07900). Briefly: Luminescence-based dose response biochemical high throughput screening assay for inhibitors of the Heat Shock Protein 90 (HSP90). [Related pubchem assays: 1831 (Summary AID.), 1846 (Confirmation screen.), 1789 (Primary screen.)].
Assay [2] concerns the target Dual specificity tyrosine-phosphorylation-regulated kinase 1A (Rattus norvegicus, UniProt Q63470). Format: biochemical, Homo sapiens.
The nature of assay [3]: Luminescent dose response cell-based high throughput screening assay for inhibitors of the Janus kinase 2 mutant JAK2V617F. [Related pubchem assays: 1446 (Primary screen.), 1521 (Confirmation assay.), 1486 (Counter screen.)]. It counts as functional. Background: Counterscreens check selectivity or assay interference.
The subject of assay [4] is Streptococcus sp. 'group A'. Nature of the assay: growth inhibition of control SK(-) GAS strain, dose response, counter-screen for streptokinase expression inhibitor project, luminescence, kanamycin, BacTiterGlo, confirmation (AID 1900). Format: functional, organism-based.
For the next assay, the target named is T1, Streptokinase A (Streptococcus pyogenes serotype M1, UniProt P10520).
T1 sequence (P10520 whole entry): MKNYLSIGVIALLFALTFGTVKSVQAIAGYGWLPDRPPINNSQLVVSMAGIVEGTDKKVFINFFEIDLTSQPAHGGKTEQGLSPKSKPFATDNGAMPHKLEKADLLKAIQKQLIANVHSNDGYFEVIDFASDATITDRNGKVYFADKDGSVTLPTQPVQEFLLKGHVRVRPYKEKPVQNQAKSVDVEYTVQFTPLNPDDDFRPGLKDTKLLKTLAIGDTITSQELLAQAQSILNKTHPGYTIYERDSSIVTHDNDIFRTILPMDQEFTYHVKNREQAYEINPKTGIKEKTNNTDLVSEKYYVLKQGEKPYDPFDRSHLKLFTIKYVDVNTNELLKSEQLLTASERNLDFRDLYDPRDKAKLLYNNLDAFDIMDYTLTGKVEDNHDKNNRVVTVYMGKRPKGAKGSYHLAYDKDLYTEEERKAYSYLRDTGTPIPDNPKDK
Nature of the assay: S. pyogenes streptokinase expression inhibitors, potency, dose response, plasminogen activation absorbance, OD405 (AID 1914).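 Also: secreted streptokinase activity via plasminogen activation per viability signal from cell pellet.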 It counts as functional, Streptococcus pyogenes M1 GAS.

Another assay concerns Streptococcus. Briefly: Group A Streptococcus viability loss, dose response, counter-screen for streptokinase expression inhibitor project, luminescence, BacTiterGlo (AID 1915).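 Also: potency for reduction of bacterial viability or growth.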 It counts as functional, organism-based.
Assay [5] concerns the target T2, Short transient receptor potential channel 4 (Mus musculus, UniProt Q9QUQ5).
T2 sequence (Q9QUQ5 whole entry): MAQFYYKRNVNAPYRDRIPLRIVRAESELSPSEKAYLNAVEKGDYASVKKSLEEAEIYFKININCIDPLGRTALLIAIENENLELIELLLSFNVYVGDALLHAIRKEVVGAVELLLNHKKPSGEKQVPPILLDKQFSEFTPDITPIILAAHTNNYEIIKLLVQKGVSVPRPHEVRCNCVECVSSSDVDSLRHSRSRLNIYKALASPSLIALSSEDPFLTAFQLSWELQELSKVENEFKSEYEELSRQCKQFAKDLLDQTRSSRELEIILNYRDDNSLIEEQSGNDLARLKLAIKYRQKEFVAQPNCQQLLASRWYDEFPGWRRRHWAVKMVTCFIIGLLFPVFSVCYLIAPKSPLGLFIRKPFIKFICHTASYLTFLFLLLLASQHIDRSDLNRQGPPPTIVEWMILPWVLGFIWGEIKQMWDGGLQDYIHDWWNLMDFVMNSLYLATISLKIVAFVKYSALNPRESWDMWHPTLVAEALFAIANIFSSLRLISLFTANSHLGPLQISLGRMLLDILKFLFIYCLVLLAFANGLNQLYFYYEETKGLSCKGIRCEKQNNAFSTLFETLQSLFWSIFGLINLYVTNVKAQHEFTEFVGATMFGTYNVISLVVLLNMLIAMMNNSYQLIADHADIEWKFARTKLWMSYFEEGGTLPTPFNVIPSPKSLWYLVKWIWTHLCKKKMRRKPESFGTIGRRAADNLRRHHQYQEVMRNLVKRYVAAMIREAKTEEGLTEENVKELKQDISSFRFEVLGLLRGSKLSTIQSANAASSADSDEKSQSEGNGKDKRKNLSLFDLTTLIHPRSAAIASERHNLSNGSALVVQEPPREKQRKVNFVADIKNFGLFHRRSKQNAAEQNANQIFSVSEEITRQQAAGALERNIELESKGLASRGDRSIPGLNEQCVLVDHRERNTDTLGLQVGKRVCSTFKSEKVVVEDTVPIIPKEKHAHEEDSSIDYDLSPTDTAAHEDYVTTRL
Nature of the assay: mouse TRPC4 channel inhibitors, dose response, cell-based, HEK293 TRPC4/mu-opioid, Fluo-4 calcium (AID 434942).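 Also: potency of inhibitors blocking the TRPC4 calcium response.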 Format: functional.

For another assay, the target named is Nonstructural protein 1 (Influenza A virus, UniProt Q194T2). Format: functional, Influenza A virus (A/California/07/2009(H1N1)).
Sequence of Nonstructural protein 1 (Q194T2 whole entry): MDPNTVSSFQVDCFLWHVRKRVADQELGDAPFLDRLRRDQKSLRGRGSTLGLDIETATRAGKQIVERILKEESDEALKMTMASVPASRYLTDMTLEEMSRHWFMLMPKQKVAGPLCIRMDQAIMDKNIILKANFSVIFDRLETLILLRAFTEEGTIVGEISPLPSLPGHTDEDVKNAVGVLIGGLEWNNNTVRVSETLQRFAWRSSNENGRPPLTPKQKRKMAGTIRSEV
The subject of a further assay is INS1. Briefly: beta cell apoptosis inhibitors, cytokine rescue, dose response, luminescence, retest (AID 449756).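 Also: cell death triggered by IL-1 beta plus TNF-alpha plus IFN-gamma mixture; protective hits raise ATP signal compared with cytokine alone wells.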 It counts as functional, cell-based. Conditions: Rattus norvegicus.
Assay [6] in a line: Artemis endonuclease inhibitor potency, dose response, biochemical, fluorescence intensity (AID 720701).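 Also: Artemis endonuclease enzyme.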 It counts as functional.
Assay [7] concerns the target Bifunctional protein GlmU (Mycobacterium tuberculosis, UniProt P9WMN3). Briefly: Inhibitors of Mycobacterial Glucosamine-1-phosphate acetyl transferase (GlmU). Secondary screen. Set-up: species or system Mycobacterium tuberculosis H37Rv.
A short description of assay [8]: inhibitors of intracellular T. cruzi replication, confirmation, NIH3T3 host cells, beta-gal luminescence (AID 2044).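 Also: intracellular parasites grown in NIH/3T3 mouse fibroblasts as host cells; luminescent beta-galactosidase reporter signal from transgenic T. cruzi replicating inside host cells; inhibitors lower the luminescence signal.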 It counts as functional, cell-based.
Assay [9] can be described thus: cytotoxicity toward NIH3T3 fibroblasts, dose response, counter-screen, cell-based, ATP luminescence, mouse fibroblasts (AID 2010).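 Also: cells exposed to compound for about 90 hours before reading.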 Format: functional.
For another assay, the target named is T3, Protein Tat (Human immunodeficiency virus type 1 group M subtype B (isolate HXB2)(HIV-1), UniProt P04608).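 Also: tat binding to TAR RNA read out by fluorescence polarization.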
T3 sequence (P04608 whole entry): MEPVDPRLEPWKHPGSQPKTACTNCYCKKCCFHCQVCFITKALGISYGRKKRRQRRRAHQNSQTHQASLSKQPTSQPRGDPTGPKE
It counts as functional.

The nature of assay [10]: Vero cell cytotoxicity, dose response, cytotoxicity control for Vif-APOBEC3G degradation inhibitor project, Vero cells (AID 1117358). Format: functional. As to conditions: Human immunodeficiency virus 1, Vero.
In assay [11] the target is Peroxisome proliferator-activated receptor gamma/Nuclear receptor corepressor 2 (Homo sapiens, UniProt P37231+Q9Y618). Nature of the assay: Counterscreen for NR2E3 inverse agonists: TR-FRET-based biochemical high throughput dose response assay to identify inverse agonists of the interaction between peroxisome proliferator-activated receptor gamma (PPARg) and nuclear receptor co-repressor 2 (NCOR2). Format: functional.
Sequence of Peroxisome proliferator-activated receptor gamma/Nuclear receptor corepressor 2 (P37231 whole entry): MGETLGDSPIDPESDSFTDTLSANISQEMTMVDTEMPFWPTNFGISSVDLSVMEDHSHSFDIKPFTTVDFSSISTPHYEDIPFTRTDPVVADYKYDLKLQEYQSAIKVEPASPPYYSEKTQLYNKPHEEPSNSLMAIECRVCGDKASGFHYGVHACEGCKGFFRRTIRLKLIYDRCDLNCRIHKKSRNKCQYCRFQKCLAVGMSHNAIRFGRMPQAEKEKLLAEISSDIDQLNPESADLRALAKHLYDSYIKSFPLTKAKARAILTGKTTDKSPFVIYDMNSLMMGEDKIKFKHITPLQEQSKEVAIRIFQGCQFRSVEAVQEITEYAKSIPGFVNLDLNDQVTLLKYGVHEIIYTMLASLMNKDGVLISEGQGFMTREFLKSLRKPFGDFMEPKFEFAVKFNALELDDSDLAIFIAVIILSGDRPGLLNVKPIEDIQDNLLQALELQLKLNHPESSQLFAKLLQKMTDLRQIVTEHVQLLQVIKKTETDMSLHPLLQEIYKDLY
Sequence of Peroxisome proliferator-activated receptor gamma/Nuclear receptor corepressor 2 (Q9Y618 whole entry): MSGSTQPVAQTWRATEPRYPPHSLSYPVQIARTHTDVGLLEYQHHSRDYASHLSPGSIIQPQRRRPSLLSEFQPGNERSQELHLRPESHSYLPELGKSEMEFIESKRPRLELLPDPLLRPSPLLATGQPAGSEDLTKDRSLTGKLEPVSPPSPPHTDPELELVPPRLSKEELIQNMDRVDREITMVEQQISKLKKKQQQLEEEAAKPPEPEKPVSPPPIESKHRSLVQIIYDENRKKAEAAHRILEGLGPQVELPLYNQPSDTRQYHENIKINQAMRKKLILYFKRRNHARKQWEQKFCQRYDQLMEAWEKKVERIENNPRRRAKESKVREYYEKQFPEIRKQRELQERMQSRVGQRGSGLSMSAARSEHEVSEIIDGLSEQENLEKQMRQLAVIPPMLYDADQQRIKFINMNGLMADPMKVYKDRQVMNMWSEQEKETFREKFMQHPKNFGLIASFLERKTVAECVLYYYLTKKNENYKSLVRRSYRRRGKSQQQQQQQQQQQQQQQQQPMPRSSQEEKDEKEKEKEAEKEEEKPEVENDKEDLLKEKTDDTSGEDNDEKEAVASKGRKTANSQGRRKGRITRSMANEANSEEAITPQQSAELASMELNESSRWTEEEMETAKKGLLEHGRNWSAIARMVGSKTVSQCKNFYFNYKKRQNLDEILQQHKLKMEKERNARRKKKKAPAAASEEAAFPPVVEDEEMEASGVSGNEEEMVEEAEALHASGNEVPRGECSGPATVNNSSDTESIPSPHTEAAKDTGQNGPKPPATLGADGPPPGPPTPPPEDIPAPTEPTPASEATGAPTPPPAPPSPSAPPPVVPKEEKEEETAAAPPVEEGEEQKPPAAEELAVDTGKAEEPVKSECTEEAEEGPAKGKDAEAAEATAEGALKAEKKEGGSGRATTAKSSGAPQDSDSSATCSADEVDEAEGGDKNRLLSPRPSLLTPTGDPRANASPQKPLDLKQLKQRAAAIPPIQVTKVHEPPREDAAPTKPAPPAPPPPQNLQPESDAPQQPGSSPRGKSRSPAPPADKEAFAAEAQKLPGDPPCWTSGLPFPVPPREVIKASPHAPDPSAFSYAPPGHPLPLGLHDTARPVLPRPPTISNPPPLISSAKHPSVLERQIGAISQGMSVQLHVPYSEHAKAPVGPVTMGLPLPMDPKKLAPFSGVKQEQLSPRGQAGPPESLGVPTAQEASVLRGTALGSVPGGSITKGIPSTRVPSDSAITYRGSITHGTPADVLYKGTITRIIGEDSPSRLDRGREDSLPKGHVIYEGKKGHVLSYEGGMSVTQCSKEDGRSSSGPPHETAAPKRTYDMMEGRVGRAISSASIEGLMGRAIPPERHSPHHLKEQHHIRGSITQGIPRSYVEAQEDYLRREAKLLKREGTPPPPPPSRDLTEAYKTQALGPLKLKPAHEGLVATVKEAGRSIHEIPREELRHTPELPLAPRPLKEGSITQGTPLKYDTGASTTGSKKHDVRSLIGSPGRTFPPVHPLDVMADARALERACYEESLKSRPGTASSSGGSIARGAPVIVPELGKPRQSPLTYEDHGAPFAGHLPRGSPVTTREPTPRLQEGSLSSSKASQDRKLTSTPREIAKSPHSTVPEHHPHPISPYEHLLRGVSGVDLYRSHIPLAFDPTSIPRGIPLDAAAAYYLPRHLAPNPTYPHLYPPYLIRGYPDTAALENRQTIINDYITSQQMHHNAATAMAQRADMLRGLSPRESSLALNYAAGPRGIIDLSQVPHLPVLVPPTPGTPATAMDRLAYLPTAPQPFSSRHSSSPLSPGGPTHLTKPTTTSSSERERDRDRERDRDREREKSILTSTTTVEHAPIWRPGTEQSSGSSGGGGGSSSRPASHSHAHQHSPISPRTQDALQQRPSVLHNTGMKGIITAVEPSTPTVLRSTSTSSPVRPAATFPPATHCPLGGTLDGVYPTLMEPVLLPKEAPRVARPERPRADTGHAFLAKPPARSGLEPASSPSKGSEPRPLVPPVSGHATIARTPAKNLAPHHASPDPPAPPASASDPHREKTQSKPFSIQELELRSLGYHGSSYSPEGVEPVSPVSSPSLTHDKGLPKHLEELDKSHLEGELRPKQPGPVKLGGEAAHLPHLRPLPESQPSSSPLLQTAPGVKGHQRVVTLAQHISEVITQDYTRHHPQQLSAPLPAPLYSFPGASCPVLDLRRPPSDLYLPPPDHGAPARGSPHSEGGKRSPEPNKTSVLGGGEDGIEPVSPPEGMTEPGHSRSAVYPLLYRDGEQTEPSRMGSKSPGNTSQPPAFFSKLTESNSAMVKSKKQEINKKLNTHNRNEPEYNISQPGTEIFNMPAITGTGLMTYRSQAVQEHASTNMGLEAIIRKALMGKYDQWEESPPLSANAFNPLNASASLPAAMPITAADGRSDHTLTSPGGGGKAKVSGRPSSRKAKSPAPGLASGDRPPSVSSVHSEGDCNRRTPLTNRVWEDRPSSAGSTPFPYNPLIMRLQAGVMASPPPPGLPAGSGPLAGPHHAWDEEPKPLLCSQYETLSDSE

Assay [12] has as its target Photoreceptor-specific nuclear receptor (Homo sapiens, UniProt Q9Y5X4). Briefly: NR2E3 inverse agonists, dose response, biochemical, TR-FRET (AID 463256). Format: functional. On the technique in general: TR-FRET usually uses a lanthanide donor and a delayed reading to cut background.
The target in assay [13] is Luciferin 4-monooxygenase (Photinus pyralis, UniProt P08659). Briefly: Counter Screen for Luciferase-based Assay Positives. [Related pubchem assays: 620, 618, 411 ].
Sequence of Luciferin 4-monooxygenase (P08659 whole entry): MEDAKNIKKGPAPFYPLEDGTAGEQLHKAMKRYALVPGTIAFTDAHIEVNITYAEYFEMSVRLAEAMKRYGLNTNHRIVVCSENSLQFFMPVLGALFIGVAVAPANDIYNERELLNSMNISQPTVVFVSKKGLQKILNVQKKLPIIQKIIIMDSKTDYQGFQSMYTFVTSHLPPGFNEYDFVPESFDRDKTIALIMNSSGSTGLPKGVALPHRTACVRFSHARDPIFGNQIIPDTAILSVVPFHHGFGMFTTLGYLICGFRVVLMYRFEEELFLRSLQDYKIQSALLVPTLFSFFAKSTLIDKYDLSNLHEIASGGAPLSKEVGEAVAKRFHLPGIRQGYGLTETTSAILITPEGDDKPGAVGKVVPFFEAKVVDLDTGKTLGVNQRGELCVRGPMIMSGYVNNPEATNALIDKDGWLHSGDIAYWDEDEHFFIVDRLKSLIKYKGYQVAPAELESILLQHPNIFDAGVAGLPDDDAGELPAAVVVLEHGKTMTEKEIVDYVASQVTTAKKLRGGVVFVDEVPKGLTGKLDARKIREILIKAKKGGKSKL
The test system of another assay is HT-1080. Nature of the assay: cytotoxicity in HT1080 fibrosarcoma cells, cell-based, fluorescence readout (AID 620). It counts as functional. As to conditions: Homo sapiens.
Another assay deals with HEK293. Briefly: inhibitors of LMP1-driven NF-kB reporter, dose response, cell-based, HEK293, luciferase, cherry-pick (AID 588343). Format: functional. Conditions: Homo sapiens.
Assay [14] can be described thus: P. falciparum Dd2 growth inhibitors, dose response, SYBR Green, dry powder samples, set 9 (AID 1159568). Format: functional, cell-based.
Assay [15] is described as follows: P. falciparum Dd2 growth inhibitors, dose response, SYBR Green, cherry-picked samples (AID 1159567). Format: functional, cell-based.
Assay [16] can be described thus: HepG2 cell cytotoxicity, dose response, cytotoxicity control, cherry-picked samples (AID 1159577). It counts as functional, cell-based.
Assay [17] in a line: P. falciparum 3D7-ScDHODH growth inhibitors, dose response, SYBR Green, dry powder samples (AID 1159570).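 Also: parasite growth measured after 72 hours of compound exposure.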 Format: functional, cell-based.
Assay [18] can be described thus: HepG2 cell cytotoxicity, dose response, cytotoxicity control, plate reader, dry powder samples (AID 1159569).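 Also: inhibitor potency with signal falling toward the positive control level.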 Format: functional, cell-based.
The nature of assay [19]: P. falciparum Dd2 growth inhibitors, dose response, SYBR Green, dry powder samples (AID 1159566).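 Also: potency for growth inhibition with lower SYBR green DNA signal.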 It counts as functional, cell-based.
Assay [20] in a line: P. falciparum ATP4 D1247Y mutant growth inhibitors, dose response, NITD609-resistant line, SYBR Green, dry powder (AID 1159571).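 Also: parasites synchronized at ring stage by sorbitol before testing.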 It counts as functional, cell-based.

Sequence of Bifunctional protein GlmU (P9WMN3 whole entry): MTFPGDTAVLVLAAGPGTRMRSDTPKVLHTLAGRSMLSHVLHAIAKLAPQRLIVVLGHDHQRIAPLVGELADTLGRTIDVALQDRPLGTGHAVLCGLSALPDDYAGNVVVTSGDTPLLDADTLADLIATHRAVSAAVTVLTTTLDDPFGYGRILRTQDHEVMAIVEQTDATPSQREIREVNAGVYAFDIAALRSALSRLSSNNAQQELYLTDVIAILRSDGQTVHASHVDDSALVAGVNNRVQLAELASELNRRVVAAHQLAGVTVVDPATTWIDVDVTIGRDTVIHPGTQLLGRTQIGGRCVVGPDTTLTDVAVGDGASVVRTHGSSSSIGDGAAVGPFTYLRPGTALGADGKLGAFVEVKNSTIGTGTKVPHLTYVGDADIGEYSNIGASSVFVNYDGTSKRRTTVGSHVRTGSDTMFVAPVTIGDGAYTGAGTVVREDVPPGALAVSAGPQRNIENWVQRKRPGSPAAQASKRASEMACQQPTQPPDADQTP
Sequence of Photoreceptor-specific nuclear receptor (Q9Y5X4 whole entry): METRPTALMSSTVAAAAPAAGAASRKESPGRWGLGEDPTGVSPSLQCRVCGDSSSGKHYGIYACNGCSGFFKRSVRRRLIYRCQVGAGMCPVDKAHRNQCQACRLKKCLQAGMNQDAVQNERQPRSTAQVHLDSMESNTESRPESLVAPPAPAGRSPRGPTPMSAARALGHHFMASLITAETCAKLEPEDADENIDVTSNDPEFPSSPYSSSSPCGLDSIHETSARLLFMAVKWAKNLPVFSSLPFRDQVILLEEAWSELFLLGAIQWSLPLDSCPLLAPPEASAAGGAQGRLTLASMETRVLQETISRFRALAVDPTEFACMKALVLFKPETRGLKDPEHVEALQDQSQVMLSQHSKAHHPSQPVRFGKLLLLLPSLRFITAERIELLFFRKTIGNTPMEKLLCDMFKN

As a reminder, the IC50 is the concentration that gives 50% inhibition. `COc1ccccc1NC(=O)c1coc(=O)c(Br)c1`: the IC50 in [1] was 0.658 µM (active).
For orientation: AC50 means the midpoint of the concentration-response curve, whichever way the signal moves. As to `CS(=O)(=O)c1ccc(-c2cn3cc(C(=O)O)ccc3n2)cc1`, the IC50 in assay [1] is 2.5 µM (active). Further, the AC50 in assay [2] is 1.96 µM (active).
For the molecule `COc1ccc(-c2cc(-c3cc(C)ccc3O)[nH]n2)cc1`, the IC50 in [3] is 1.83 µM (active).
For orientation: EC50 means the concentration that produces a half-maximal response. For the molecule `c1ccc(-c2nc(NCc3ccco3)c3ccccc3n2)nc1`, the EC50 in assay [4] was 3.14 µM (active); on Streptokinase A, > 150 µM (not active); in the assay with Streptococcus it was 12.1 µM (active); in assay [5], 0.335 µM (active). For the same molecule, the IC50 on Nonstructural protein 1 was 14.5 µM (active); in assay [6], 8.96 µM (active). Besides, the AC50 with INS1 is 3.41 µM (active).
With `COc1ccc(OCc2cc(C(=O)O)c(C)o2)cc1`, in [7], the half-inhibitory concentration (IC50) is 51.7 µM (active).
As a reminder, the CC50 is the concentration at which the toxic effect on the cells reaches its halfway point. `Cc1noc(/C=C/c2ccco2)c1S(=O)(=O)N1CCC(C(=O)N2c3ccccc3CC2C)CC1` (stereo unspecified): the concentration giving a half-maximal response (EC50) in [8] was 1.66 µM (active); in assay [9], > 60 µM (not active). Besides, at Protein Tat, the half-maximal inhibitory concentration (IC50) was > 100 µM (active). In addition, the CC50 in [10] is 39.7 µM (active).
Consider `CC(=O)c1ccc(-c2ccc(C(=O)Nc3nc(C)c(C(C)=O)s3)o2)cc1`, for which the results for the half-inhibitory concentration (IC50) in [11] and in [12] were 9.53 µM (active) and 8.01 µM (active), respectively.
For `COc1cccc(C(=O)Nc2nc3ccccc3[nH]2)c1`, the EC50 in assay [13] is 0.75 µM (active); with HT-1080, > 50 µM (not active). Also, the AC50 in the assay on HEK293 is 3.29 µM (active). Moreover, the CC50 in assay [10] is > 40 µM (active).
Regarding `Cc1cccc(-c2ccc([C@@H]3[C@@H]4CN(C(=O)CN(C)C)C[C@H]3N4)cc2)c1`, the concentration at half-maximal activity (AC50) in assay [14] is 4.19 µM (active); in [15], 3.46 µM (active); in [16] it was 32.1 µM (active).
As for `C[C@@H]1CN([C@@H](C)CO)C(=O)c2cccc(NC(=O)c3nc4ccccc4s3)c2O[C@H]1CN(C)C(=O)Nc1ccc(C(F)(F)F)cc1`, the AC50 in assay [17] is 0.274 µM (active); in assay [18] it was > 100 µM (inactive); in [15], 1.06 µM (active); in assay [19] it was 0.245 µM (active); in assay [20], 0.323 µM (active).
For the molecule `CCCC(=O)N1CCC2(CC1)CN(S(=O)(=O)c1ccc(C)cc1)[C@@H](CO)c1[nH]c3cc(OC)ccc3c12`, the AC50 is 0.137 µM (active) in assay [17]; 77.5 µM (active) in assay [18]; 0.182 µM (active) in assay [14]; < 0.3 µM (active) in assay [15]; 0.0986 µM (active) in assay [19]; 0.115 µM (active) in [20].
